According to patent publication US10092537B2, “Use for PAI-1 inhibitor” (RENASCIENCE CO., LTD., priority 2013, dated 2018):

Legend:
hematopoietic stem cells [1] = assay: Fibrinolytic pathway activation and bone-marrow regeneration after lethal radiation (9Gy) and bone-marrow transplantation, compound a versus recombinant tPA (Experimental Example 7)
Experimental: Within 4 hours, 1.0×10^6 bone-marrow mononucleic cells (BM MNC) were intravenously inoculated into retro-orbital plexus. Concurrently with transplantation, compound a (dosage 100 mg/kg) or recombinant tPA (dosage 100 mg/kg, Eisai Co., Ltd) were administered as a test compound via oral gavage, and the test compound was orally administered for 5 consecutive days (administered group). As a control test, instead of the test compound, physiological saline (vehicle) used for dissolving compound a was orally administered in the same manner (control group).
Blood was collected 2 and 7 days after bone-marrow transplantation, and the active PAI-1 level (ng/mL), active tissue-type plasminogen activator (active tPA), plasmin level (ng/mL), cKit ligand, and total MMP-9 (Matrix metalloprotein-9) in the plasma were measured.

[2] = test system: long-term hematopoietic stem cells; assay: Long-term hematopoietic stem cells: 15 weeks after transplantation, successive transplantation, limiting dilution (Experimental Example 10); assay type: in vivo, mice
Experimental: 15 weeks after bone-marrow transplantation, the control group, tPA group, and compound a-administered group (12 mice for each group) were measured for the number of bone-marrow mononucleic cells (BM MNC), frequency and absolute number of Lin-SLAM cells, and frequency of and absolute number LSK-CD34 negative cells.
15 weeks after the initial bone-marrow transplantation, bone marrow was collected from mice of the control group, tPA group, and compound a-administered group, and the collected bone marrow was transplanted into other mice (successive transplantation). In the successive transplantation, none of physiological saline, tPA, or compound a was administered.
12 weeks after successive transplantation, the chimerism of donor-derived bone marrow hematopoietic cells was measured.
To compare the frequency of long-term hematopoietic stem cell, donor-derived bone marrow to be transplanted first was diluted and transplanted, and the effect of PAI-1 inhibition was evaluated by a limiting dilution technique.
The collected bone-marrow mononucleic cells were diluted such that Ly5.1 positive bone-marrow mononucleic cell count gave 2×10E3, 6×10E3, 2×10E4, and 6×10E4, and then Ly5.1 positive bone-marrow mononucleic cells of each count were transplanted, together with 5×10E5 Ly5.2 positive competitor cells, into 20 mice. For transplantation, mice were divided into 2 groups, i.e., a compound a-administered group to which compound a was to be administered and a control group to which physiological saline was to be administered (8 groups in total), and the chimerism (the positive rate of Ly5.1 positive bone-marrow mononucleic cells) was measured 12 weeks after the transplantation.
Further, bone marrow was collected from the control groups and the compound a-administered groups to both of which Ly5.1 positive bone-marrow mononucleic cells of the above-described numbers were transplanted, and the collected bone marrow was successively transplanted into other mice. At the time successive transplantation was conducted, neither physiological saline nor the compound was administered. 12 weeks after the successive transplantation, bone marrow was collected from the mice, and Ly5.1 positive cells in the bone-marrow mononucleic cells were measured.
After successive transplantation, the frequency (CRU frequency) of hematopoietic stem cells having the hematopoietic regeneration capacity was calculated.

[3] = Pharmacokinetics after oral gavage (Experimental Example 6); assay type: in vivo, male Wister rats; conditions: male, Wistar, rat, 50 mg/kg oral gavage, plasma, reversed-phase HPLC
Experimental: Compound a (50 mg/kg) was administered to male Wister rats (180-200 g) via oral gavage. Before administration (0 h), and 1, 2, 6 and 24 hours after the administration, blood was collected, and the concentration of compound a in plasma of each […] was analyzed by reversed-phase HPLC. The time at which the maximum drug concentration in blood is observed (Tmax), the maximum drug concentration (Cmax), and half-life (T½) were determined.

hematopoietic stem cells [4] = assay: Bone-marrow transplanted mice, compound c, G-CSF and G-CSF neutralizing antibody (Experimental Example 13); assay type: in vivo; conditions: for G-CSF concentration in the plasma and bone-marrow fluids: 1 week after transplantation
Experimental: Bone-marrow transplanted mice were prepared in the same manner as in Experimental Example 4, and compound c, G-CSF, and G-CSF neutralizing antibody were examined for the effects. Specifically, the bone-marrow transplanted mice were divided into 5 groups as shown below (each group: n=5) and orally administered respective test drugs.
Group 1: vehicle group (physiological saline was administered via gavage) (“v group”)
Group 2: compound c group (compound c [10 mg/kg/day] was administered via gavage) (“TM group”)
Group 3: G-CSF group (G-CSF [150 μg/kg/day] was administered via gavage) (“G group”)
Group 4: vehicle+anti-G-CSF group (physiological saline+G-CSF neutralizing antibody [500 μg/kg/day] was administered via gavage) (“v+Ab group”)
Group 5: compound c+anti-G-CSF group (compound c [500 μg/kg/day]+G-CSF neutralizing antibody [500 μg/kg/day] was administered via gavage) (“TM+Ab group”)
Concurrently with bone-marrow transplantation, administration of physiological saline (vehicle) to the vehicle group via gavage was started, and the administration continued for 5 consecutive days. Concurrently with bone-marrow transplantation, administration of compound c (10 mg/kg/day) to the compound c group via gavage was started, and the administration continued for 5 consecutive days. Concurrently with bone-marrow transplantation, subcutaneous administration of G-CSF (150 μg/kg/day) to the G-CSF group was started, and the administration continued for 5 consecutive days. Concurrently with bone-marrow transplantation, gavage administration of physiological saline and subcutaneous administration of G-CSF neutralizing antibody (R&D) (500 μg/kg/day) to the vehicle+anti-G-CSF group were started, and the administration continued for 5 consecutive days. Concurrently with bone-marrow transplantation, gavage administration of compound c (10 mg/kg/day) and intraperitoneal administration of G-CSF neutralizing antibody (R&D) (500 μg/kg/day) to the compound c+anti-G-CSF group were started, and the administration continued for 5 consecutive days.
1 week after bone-marrow transplantation, plasma and bone-marrow fluids were collected from mice of each group (v group, TM group, G group, v+Ab group, and TM+Ab group), and the G-CSF concentration (pg/ml) was measured by ELISA. The following were determined in accordance with an ordinary procedure: (B) G-CSF concentration (pg/ml) in bone-marrow fluids, (C) total number of mononucleic cells (×10E7 cell) in the bone marrow, (D) proportion (%) of LSK CD34 negative cells in the bone marrow, (E) total number of LSK CD34 negative cells in the bone marrow, (F) proportion (%) of Lin-SLAM cells in the bone marrow, and (G) total number of Lin-SLAM cells in the bone marrow.

[5] = 2 and 7 days after transplantation, among control, tPA and compound a groups
[6] = tPA group compared with control group, compound a group compared with tPA group
[7] = compound c + G-CSF neutralizing antibody 500 μg/kg/day

## O=C(COCC(=O)N1CCN(C(c2ccccc2)c2ccccc2)CC1)Nc1ccc(Cl)cc1C(=O)[O-].[Na+] [Example 30 (compound group 2), 2-(2-(2-(4-benzhydrylpiperazin-1-yl)-2-oxoethoxy)acetamido)-5-chlorobenzoic acid sodium salt]
Hematopoietic stem cells [1]; [5]
  level of cKitL in plasma: highest level
  level of plasmin in plasma: highest level
  level of total MMP-9 in plasma: highest level
Hematopoietic stem cells [1]; 7 days after transplantation, among control, tPA and compound a groups
  level of active tPA in plasma: highest level
Hematopoietic stem cells [1]; compound a or recombinant tPA 100 mg/kg, 5 consecutive days, 2 and 7 days after bone-marrow transplantation
  expression of active PAI-1 in the plasma: did not exhibit an expression of active PAI-1
Hematopoietic stem cells [1]; lethal radiation 9Gy, 100 mg/kg, 5 consecutive days, n=15, control group 20%
  survival rate on day 28 from bone-marrow transplantation: 70%
Hematopoietic stem cells [1]; [6]
  platelet count in the peripheral blood: significantly increased
  white blood cell count in the peripheral blood: significantly increased
[2]; 12 weeks after successive transplantation, compound given only at first transplantation
  chimerism of donor-derived bone marrow hematopoietic cells: marked increase
[2]; 15 weeks after bone-marrow transplantation, among control, tPA and compound a groups
  number of bone-marrow mononucleic cells, frequency and absolute number of LSK-CD34 negative cells and of Lin-SLAM cells: highest values
[2]; after successive transplantation
  frequency of hematopoietic stem cells having the hematopoietic regeneration capacity, versus control: ≥ 6 time higher
[2]; limiting dilution 2×10E3 to 6×10E4 cells, 12 weeks after transplantation
  chimerism (positive rate of Ly5.1 positive bone-marrow mononucleic cells): significant increases
[3]
  Cmax: 35700 ng/mL
  Tmax: 2 h
[3]; read-out: T½ (converted)
  half-life: 150 min

## O=C(Nc1ccc(Cl)cc1C(=O)O)c1cccc(-c2ccccc2)c1 [Example 4, 2-[(biphenyl-3-ylcarbonyl)amino]-5-chlorobenzoic acid]
Hematopoietic stem cells [4]; [7]
  number of BM MNC: did not exhibit a decrease
  proportion and number of LSK-CD34 negative cells: not decreased
  G-CSF concentration in the plasma and bone-marrow fluids: an increase in G-CSF in neither plasma nor bone-marrow fluids
Hematopoietic stem cells [4]; single agents: compound c 10 mg/kg/day gavage, G-CSF 150 μg/kg/day, G-CSF neutralizing antibody 500 μg/kg/day with vehicle, versus vehicle
  G-CSF concentration in the plasma and bone-marrow fluids: significant increases
Hematopoietic stem cells [4]; single agents: compound c 10 mg/kg/day, G-CSF 150 μg/kg/day, G-CSF neutralizing antibody 500 μg/kg/day with vehicle, versus vehicle group
  proportion and number of LSK CD34 negative cells: increased
Hematopoietic stem cells [4]; single agents: compound c 10 mg/kg/day, G-CSF 150 μg/kg/day, versus vehicle group
  number of BM MNC: more increased
